Reference: US8372383B2, “Agent for inducing hair growth containing extracts of saw palmetto and swertia” (Medidermis Ltd, priority 1999, dated 2013)

Assays:
[1] = system: hair loss; details: after at least one-year daily uptake; 39% hair growth in control group; cited from earlier work
[2] = system: Mice (males, C3H type); experiment: Hair growth model in mice in the resting phase of the hair cycle (weight of hair after 18 days of topical application); format: in vivo
Source text: Data was objectively assessed by the experiments given hereafter in an already established hair growth model in mice [Inaoka Y, et al. 1994, 42:530-3.], employing treatment versus controls. As a positive control, minoxidil 5% was used. […] The present invention thus fulfills the need for a natural combination of plant extracts and provides the advantages of unanimous use and excellent efficacy. In mice, the hair growth and effluvium are a continuous cyclic process. […] Therefore, any hair growth during this period is non-physiologic and induced by external agents. […] Any research related to this model should employ minoxidil as the “golden standard” and as an essential positive control. Mice (males, C3H type), which were in the resting phase in their hair cycle, i.e. at 7 weeks of age, were employed in these experiments. The skin of the back of the mice was subjected to a complete hair cut by an electric razor, with areas of approximately 2.5×4 cm. Different solutions, as will be further described, (100 μL/day) were applied with a syringe 6 times a week for 18 days, and the skin was further massaged. At the end of the experiment, the animals were sacrificed and the skin of the back was excised. The excised skin was fixed on frame consisting of a metal disc with a radius of 0.9 cm. Hairs were cut by a scalpel, collected and weighted. […] Data was calculated by SigmaStat version 2.0, Jandel.

[3] = system: hair loss; details: at the more effective higher concentrations; cited from earlier work

Row | Compound | success (hair growth) [1] [%] | Weight Of Hair ([2]; C3H male mice, 7 weeks old, 100 μL/day topically 6 times a week for 18 days, hair from excised back skin, disc of radius 0.9 cm, control (placebo) 2.52 mg) [mg] | increase of hair weight as compared to control mice ([2]; C3H mice, topical, 18 days, versus placebo-treated control) | side effects [3]
1 | CC(C)(C)NC(=O)[C@H]1CC[C@H]2[C@@H]3CC[C@H]4NC(=O)C=C[C@]4(C)[C@H]3CC[C@]12C [Finasteride] | 60 | – | – | –
2 | Nc1cc(N2CCCCC2)nc(N)[n+]1[O-] [Minoxidil 5.0%, minoxidil] | – | 4.07 | about 65% | may cause hypotension or hypertrichosis
